Experiments:
Test in all cases: In Vitro Enzymatic Assay
Conditions in all cases: 25 °C
[1] = target: Protein arginine N-methyltransferase 5 (Homo sapiens, UniProt O14744)
Experimental: (§1) All in vitro enzymatic assays were carried out by Shanghai ChemPartner Co. (998 Halei Road, Pudong New Area, Shanghai, 201203, China). To measure the IC50 values, 10 concentrations of the target compound were tested. Compounds were prepared as10 mM stock in DMSO and diluted to final concentration in DMSO when needed. The PRMT enzymes and substrates were incubated with indicated concentrations of compounds in a 384-well plate for 60 min at room temperature. After the reaction, acceptor and donor solutions were added to label the residual substrates of PRMT enzymes. The labeling process was lasting for 60 min at room temperature, followedby the reading end-point with Enspire with alpha mode.

[2] = target: T1, Histone-arginine methyltransferase CARM1 (Homo sapiens, UniProt Q86X55)
T1 sequence (Q86X55 whole entry): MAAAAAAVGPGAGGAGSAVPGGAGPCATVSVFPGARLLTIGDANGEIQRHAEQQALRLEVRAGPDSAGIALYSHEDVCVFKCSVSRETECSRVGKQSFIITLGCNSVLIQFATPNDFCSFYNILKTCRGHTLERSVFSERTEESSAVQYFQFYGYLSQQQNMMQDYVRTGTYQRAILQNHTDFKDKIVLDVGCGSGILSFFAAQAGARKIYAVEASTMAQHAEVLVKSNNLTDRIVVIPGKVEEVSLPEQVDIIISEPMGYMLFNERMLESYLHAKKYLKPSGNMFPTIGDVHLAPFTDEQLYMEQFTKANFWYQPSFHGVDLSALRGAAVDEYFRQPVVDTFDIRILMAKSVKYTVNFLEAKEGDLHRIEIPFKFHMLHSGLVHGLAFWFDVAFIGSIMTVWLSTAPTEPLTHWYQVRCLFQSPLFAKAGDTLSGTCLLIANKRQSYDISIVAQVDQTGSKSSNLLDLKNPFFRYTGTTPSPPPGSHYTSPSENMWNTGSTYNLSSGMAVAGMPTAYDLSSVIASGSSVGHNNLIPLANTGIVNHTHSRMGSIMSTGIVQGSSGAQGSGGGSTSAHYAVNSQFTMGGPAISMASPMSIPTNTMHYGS
Experimental: as §1

[3] = target: T2, Protein arginine N-methyltransferase 1 [11-371] (Homo sapiens, UniProt Q99873)
T2 construct: 11-371
T2 sequence (Q99873 11-371): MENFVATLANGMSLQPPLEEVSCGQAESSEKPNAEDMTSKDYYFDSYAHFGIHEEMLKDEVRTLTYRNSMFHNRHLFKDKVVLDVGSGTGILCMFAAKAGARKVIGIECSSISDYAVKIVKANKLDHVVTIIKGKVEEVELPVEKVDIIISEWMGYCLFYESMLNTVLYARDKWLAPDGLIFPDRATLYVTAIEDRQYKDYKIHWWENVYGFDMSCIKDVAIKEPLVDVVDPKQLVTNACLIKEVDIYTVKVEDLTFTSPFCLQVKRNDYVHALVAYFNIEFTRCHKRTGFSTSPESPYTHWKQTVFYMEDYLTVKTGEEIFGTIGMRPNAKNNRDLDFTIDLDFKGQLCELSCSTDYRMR
Experimental: as §1

[4] = target: Protein arginine N-methyltransferase 3 [N508S] (Homo sapiens, UniProt O60678, N508S)
Protein arginine N-methyltransferase 3 [N508S], sequence (O60678 2-531 N508S limits assumed): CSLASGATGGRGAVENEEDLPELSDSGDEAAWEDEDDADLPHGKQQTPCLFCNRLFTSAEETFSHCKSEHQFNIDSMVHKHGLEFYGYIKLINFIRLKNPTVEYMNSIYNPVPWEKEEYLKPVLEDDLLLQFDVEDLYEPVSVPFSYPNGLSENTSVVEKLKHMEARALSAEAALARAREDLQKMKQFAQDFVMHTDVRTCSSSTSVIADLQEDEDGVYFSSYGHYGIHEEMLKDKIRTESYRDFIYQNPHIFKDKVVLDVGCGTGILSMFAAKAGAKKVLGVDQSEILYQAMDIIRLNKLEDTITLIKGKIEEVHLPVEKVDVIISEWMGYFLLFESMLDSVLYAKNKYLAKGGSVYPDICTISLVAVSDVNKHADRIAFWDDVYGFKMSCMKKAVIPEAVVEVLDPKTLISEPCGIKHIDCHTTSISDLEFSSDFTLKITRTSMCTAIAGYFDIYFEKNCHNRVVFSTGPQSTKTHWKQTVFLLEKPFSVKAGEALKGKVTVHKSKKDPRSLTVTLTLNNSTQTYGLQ
Experimental: as §1

[5] = target: Protein arginine N-methyltransferase 6 (Homo sapiens, UniProt Q96LA8)
Protein arginine N-methyltransferase 6, sequence (Q96LA8 whole entry): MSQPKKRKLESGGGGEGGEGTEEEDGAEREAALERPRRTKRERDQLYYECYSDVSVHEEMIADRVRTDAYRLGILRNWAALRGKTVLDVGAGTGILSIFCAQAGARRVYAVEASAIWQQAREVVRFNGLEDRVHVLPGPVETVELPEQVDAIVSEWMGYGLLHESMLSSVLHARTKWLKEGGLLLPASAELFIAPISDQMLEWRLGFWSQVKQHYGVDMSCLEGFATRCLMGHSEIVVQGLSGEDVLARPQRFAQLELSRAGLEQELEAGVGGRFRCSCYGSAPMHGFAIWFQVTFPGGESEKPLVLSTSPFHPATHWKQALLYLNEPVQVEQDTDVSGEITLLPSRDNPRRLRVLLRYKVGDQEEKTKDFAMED
Experimental: as §1

[6] = target: T3, Protein arginine N-methyltransferase 7 (Homo sapiens, UniProt Q9NVM4)
T3 sequence (Q9NVM4 whole entry): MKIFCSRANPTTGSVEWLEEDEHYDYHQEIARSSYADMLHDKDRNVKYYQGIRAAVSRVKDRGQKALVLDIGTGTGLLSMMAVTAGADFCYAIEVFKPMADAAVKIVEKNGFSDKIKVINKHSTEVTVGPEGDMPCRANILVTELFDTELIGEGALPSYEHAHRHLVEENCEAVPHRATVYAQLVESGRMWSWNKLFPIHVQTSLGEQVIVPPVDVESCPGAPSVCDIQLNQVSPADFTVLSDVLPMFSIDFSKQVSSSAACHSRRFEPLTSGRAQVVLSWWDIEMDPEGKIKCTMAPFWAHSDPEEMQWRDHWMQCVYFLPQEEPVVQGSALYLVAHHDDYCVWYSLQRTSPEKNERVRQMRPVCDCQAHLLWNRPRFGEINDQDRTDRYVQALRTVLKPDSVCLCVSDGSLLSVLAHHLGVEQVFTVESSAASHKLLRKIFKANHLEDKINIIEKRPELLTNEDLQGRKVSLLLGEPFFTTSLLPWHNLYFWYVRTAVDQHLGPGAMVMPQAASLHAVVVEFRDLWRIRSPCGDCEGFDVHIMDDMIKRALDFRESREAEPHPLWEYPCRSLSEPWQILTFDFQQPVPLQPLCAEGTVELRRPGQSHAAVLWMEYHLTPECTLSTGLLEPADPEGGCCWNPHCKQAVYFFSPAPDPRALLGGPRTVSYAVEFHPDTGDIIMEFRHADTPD
Experimental: as §1

[7] = target: Protein arginine N-methyltransferase 8 (Homo sapiens, UniProt Q9NR22)
Protein arginine N-methyltransferase 8, sequence (Q9NR22 whole entry): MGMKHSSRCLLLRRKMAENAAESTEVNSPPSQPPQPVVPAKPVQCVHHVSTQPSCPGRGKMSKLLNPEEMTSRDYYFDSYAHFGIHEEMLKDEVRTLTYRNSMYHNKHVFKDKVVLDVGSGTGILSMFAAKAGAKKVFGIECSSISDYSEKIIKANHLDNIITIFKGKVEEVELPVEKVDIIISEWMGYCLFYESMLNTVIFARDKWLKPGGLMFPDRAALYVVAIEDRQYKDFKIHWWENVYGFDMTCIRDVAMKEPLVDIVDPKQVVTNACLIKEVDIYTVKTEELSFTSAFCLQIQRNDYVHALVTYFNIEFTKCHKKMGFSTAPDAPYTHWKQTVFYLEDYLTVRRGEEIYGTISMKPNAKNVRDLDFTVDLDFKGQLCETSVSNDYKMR
Experimental: as §1

Protein arginine N-methyltransferase 5, sequence (O14744 whole entry): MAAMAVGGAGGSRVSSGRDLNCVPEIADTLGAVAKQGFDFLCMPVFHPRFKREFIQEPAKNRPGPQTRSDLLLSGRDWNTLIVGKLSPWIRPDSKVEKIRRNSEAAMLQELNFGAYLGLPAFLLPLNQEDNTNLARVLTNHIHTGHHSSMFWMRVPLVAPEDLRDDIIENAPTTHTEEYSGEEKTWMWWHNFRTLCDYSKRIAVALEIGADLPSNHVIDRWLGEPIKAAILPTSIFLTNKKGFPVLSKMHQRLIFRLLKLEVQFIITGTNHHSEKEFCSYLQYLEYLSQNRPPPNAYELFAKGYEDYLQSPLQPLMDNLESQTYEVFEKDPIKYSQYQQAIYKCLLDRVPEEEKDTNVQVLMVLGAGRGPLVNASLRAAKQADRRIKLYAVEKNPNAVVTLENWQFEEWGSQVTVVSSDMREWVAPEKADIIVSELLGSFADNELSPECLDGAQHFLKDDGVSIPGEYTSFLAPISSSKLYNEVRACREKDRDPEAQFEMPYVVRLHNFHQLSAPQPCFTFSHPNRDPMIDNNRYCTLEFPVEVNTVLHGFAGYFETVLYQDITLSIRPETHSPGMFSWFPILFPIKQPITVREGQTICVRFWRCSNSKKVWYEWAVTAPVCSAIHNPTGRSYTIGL

Structure (SMILES)	IC50 [1] [µM]	also measured
NC(=O)N/N=C/c1cccc(-c2ccc(Cl)cc2)c1 [2-((4′-chloro-[1,1′-biphenyl]-3-yl)methylene)hydrazinecarboxamide (9b)]	3.8	–
NC(=O)N/N=C/c1ccc(-c2ccc(Cl)cc2N)o1 [2-((5-(2-amino-4-chlorophenyl)furan-2-yl)methylene)hydrazinecarboxamide (4m)]	13	–
NC(=O)N/N=C/c1ccc(-c2cccc(F)c2)o1 [2-((5-(3-fluorophenyl)furan-2-yl)methylene)hydrazinecarboxamide (4d)]	14	–
NC(=O)N/N=C/c1ccc(-c2ccc(N)cc2)o1 [2-((5-(4-aminophenyl)furan-2-yl)methylene)hydrazinecarboxamide (4j)]	40	–
NC(=O)N/N=C/c1cncc(-c2ccc(Cl)cc2)c1 [2-((5-(4-chlorophenyl)pyridin-3-yl)methylene)hydrazinecarboxamide (9f)]	6.9	–
NC(=O)N/N=C/c1ccc(-c2ccc(F)cc2)o1 [2-((5-(4-fluorophenyl)furan-2-yl)methylene)hydrazinecarboxamide (4e)]	12	–
COc1ccc(-c2ccc(/C=N/NC(N)=O)o2)cc1 [2-((5-(4-methoxyphenyl)furan-2-yl)methylene)hydrazinecarboxamide (4h)]	2.1	–
NC(=O)N/N=C/c1ccc(-c2ccc([N+](=O)[O-])cc2)o1 [2-((5-(4-nitrophenyl)furan-2-yl)methylene)hydrazinecarboxamide (4g)]	18	–
NC(=O)N/N=C/c1ccc(-c2ccccc2)o1 [2-((5-phenylfuran-2-yl)methylene)hydrazinecarboxamide (4a)]	12	–
NC(=O)N/N=C/c1cccc(-c2ccc(Cl)cc2)n1 [2-((6-(4-chlorophenyl)pyridin-2-yl)methylene)hydrazinecarboxamide (9g)]	3.5	–
O=C1NC(=S)NC(=O)C1=Cc1ccc(-c2ccc(Cl)cc2)o1 [5-{[5-(4-chlorophenyl)furan-2-yl]methylidene}-2-sulfanylidene-1,3-diazinane-4,6-dione]	67	–
NC(=O)N/N=C/c1ccc(-c2ccc(Cl)cc2)o1 [P5i-6]	–	IC50 [2]: > 100 µM; IC50 [3]: > 100 µM; IC50 [4]: > 100 µM; IC50 [5]: > 100 µM; IC50 [6]: > 100 µM; IC50 [7]: > 100 µM
NC(=S)N/N=C/c1ccc(-c2ccc(Cl)cc2)o1 [P5i-7]	0.72	–
